Test results: patent US10196403B2, “Compounds and compositions and uses thereof” (Sunovion Pharmaceuticals Inc., priority 2016, dated 2019)
Where two headings read alike, the source gives them in different places.

Test system: mice
Assay: Neuropharmacological Assay (SmartCube)
Assay type: in vivo
Conditions: for minimal effective dose: Mus musculus, read-out: POTENCY (minimal effective dose, MED); for AD: ADHD (SmartCube probability) / AG: analgesic (SmartCube probability) / AX: anxiolytic (SmartCube probability) / CE: cognitive enhancer (SmartCube probability) / DP: anti-depressant (SmartCube probability) / MS: mood stabilizer (SmartCube probability) / PS: anti-psychotic (SmartCube probability) / SD: sedative hypnotic (SmartCube probability) / UN: uncharacterized CNS activity (SmartCube probability): mice, i.p. 15 min before test, most efficacious dose(s) of 3 doses
From the text: Neuropharmacological Assay (SmartCube™)
Neurosci. 2011 Sep. 9; 5:103 (doi: 10.3389/fnins.2011.00103) (“Roberds”). As reported in Roberds, because psychiatric diseases generally result from disorders of cell-cell communication, circuitry, intact systems are useful in detecting improvement in disease-relevant endpoints. These endpoints are typically behavioral in nature, often requiring human observation and interpretation. To facilitate testing of multiple compounds for behavioral effects relevant to psychiatric disease, PsychoGenics, Inc. (Tarrytown, N.Y., “PGI”) developed SmartCube™, an automated system in which behaviors of compound-treated mice are captured by digital video and analyzed with computer algorithms. (D. Brunner et al., Drug Discov. Today 2002, 7:S107-S112). PGI Analytical Systems uses data from SmartCube™ to compare the behavioral signature of a test compound to a database of behavioral signatures obtained using a large set of diverse reference compounds. (The composition of the database as well as validation of the method is further described in Roberds). In this way, the neuropharmacological effects of a test compound can be predicted by similarity to major classes of compounds, such as antipsychotics, anxiolytics and antidepressants.
The SmartCube™ system produces an activity signature indicating the probability that the activity of the test compound at the administered dose matches a given class of neuropharmacological agents. (See, e.g., Roberds, FIGS. 2 and 3). The test compound is simultaneously compared against multiple classes of agents; thus, a separate probability is generated for each behavioral effect measured (e.g., anxiolytic activity, analgesic activity, etc.). In the table below, these probabilities are reported for each behavioral effect measured as follows:
where LOQ is the limit of quantification.
Provided compounds were dissolved in a mixture of Pharmasolve™ (N-methyl-2-pyrrolidone), polyethylene glycol and propylene glycol, and were injected i.p. 15 min. before the behavioral test. For each compound, injections were administered at 3 different doses. For each behavioral effect measured, results for the most efficacious dose(s) are presented. In the table below, DP: anti-depressant; AX: anxiolytic; SD: sedative hypnotic; PS: anti-psychotic; MS: mood stabilizer; AD: ADHD; CE: cognitive enhancer; AG: analgesic; UN: uncharacterized CNS activity.
The potency of many of the compounds in the table was also determined in the SmartCube™ system. Test compounds were routinely examined at dose levels of 0.3, 1, 3 10 and 30 mg per kg (mpk), although the dose range was increased or decreased if necessary to obtain a full dose response curve. A compound's minimal effective dose (MED) is a measure of the compounds potency. The MED was defined as the dose (in mpk) having 50% or more total activity in SmartCube.

[1] = MED = dose having 50% or more total activity in SmartCube

| Structure (SMILES) | minimal effective dose [1] [mg/kg] | AD: ADHD (SmartCube probability) | AG: analgesic (SmartCube probability) | AX: anxiolytic (SmartCube probability) | CE: cognitive enhancer (SmartCube probability) | DP: anti-depressant (SmartCube probability) | MS: mood stabilizer (SmartCube probability) | PS: anti-psychotic (SmartCube probability) | SD: sedative hypnotic (SmartCube probability) | UN: uncharacterized CNS activity (SmartCube probability) | minimal effective dose [mg/kg] | POTENCY (minimal effective dose, MED) [1] |
| --- | --- | --- | --- | --- | --- | --- | --- | --- | --- | --- | --- | --- |
| CNC[C@H]1OCC(F)(F)c2ccccc21 [Example 27, (S)-1-(4,4-difluoroisochroman-1-yl)-N-methylmethanamine] | 10 to 30 | + (LOQ≤ + <5%) | ++ (5%≤ ++ <25%) | ++ (5%≤ ++ <25%) | ++ (5%≤ ++ <25%) | ++ (5%≤ ++ <25%) | + (LOQ≤ + <5%) | + (LOQ≤ + <5%) | + (LOQ≤ + <5%) | +++ (25%≤ +++ <50%) | – | – |
| CCNC[C@@H]1OCCc2cccc(F)c21 [Example 87, (R)-N-((8-fluoroisochroman-1-yl)methyl)ethanamine] | < 3 | + (LOQ≤ + <5%) | ++ (5%≤ ++ <25%) | ++ (5%≤ ++ <25%) | + (LOQ≤ + <5%) | ++ (5%≤ ++ <25%) | + (LOQ≤ + <5%) | ++ (5%≤ ++ <25%) | + (LOQ≤ + <5%) | ++++ (50%≤ ++++) | – | – |
| CNC[C@H]1OCCc2ccc3c(c21)OCC3 [Example 106, (S)-N-methyl-1-(2,3,6,9-tetrahydro-7H-furo[3,2-h]isochromen-9-yl)methanamine] | 10 to 30 | + (LOQ≤ + <5%) | + (LOQ≤ + <5%) | ++ (5%≤ ++ <25%) | +++ (25%≤ +++ <50%) | ++ (5%≤ ++ <25%) | + (LOQ≤ + <5%) | ++ (5%≤ ++ <25%) | ++ (5%≤ ++ <25%) | + (LOQ≤ + <5%) | – | – |
| CNC[C@@H]1OCCc2cc3c(cc21)OCO3 (stereo in doubt) [Example 6, (R)-1-(7,8-dihydro-5H-[1,3]dioxolo[4,5-g]isochromen-5-yl)-N-methylmethanamine] | 10 to 30 | + (LOQ≤ + <5%) | + (LOQ≤ + <5%) | ++ (5%≤ ++ <25%) | + (LOQ≤ + <5%) | + (LOQ≤ + <5%) | ++ (5%≤ ++ <25%) | ++ (5%≤ ++ <25%) | + (LOQ≤ + <5%) | ++++ (50%≤ ++++) | – | – |
| Fc1cccc2c1[C@H](CNC1CCC1)OCC2 [Example 97, (R)-N-((8-fluoroisochroman-1-yl)methyl)cyclobutanamine] | – | ++ (5%≤ ++ <25%) | + (LOQ≤ + <5%) | ++ (5%≤ ++ <25%) | + (LOQ≤ + <5%) | +++ (25%≤ +++ <50%) | + (LOQ≤ + <5%) | ++ (5%≤ ++ <25%) | + (LOQ≤ + <5%) | +++ (25%≤ +++ <50%) | 3 to 10 | – |
| CNC[C@H]1OCCc2cccc(C)c21 [Example 40, (S)-N-methyl-1-(8-methylisochroman-1-yl)methanamine] | < 3 | + (LOQ≤ + <5%) | + (LOQ≤ + <5%) | +++ (25%≤ +++ <50%) | + (LOQ≤ + <5%) | ++ (5%≤ ++ <25%) | + (LOQ≤ + <5%) | ++ (5%≤ ++ <25%) | ++ (5%≤ ++ <25%) | +++ (25%≤ +++ <50%) | – | – |
| CNC[C@@H]1OCCc2cccc(C)c21 [Example 41, (R)-N-methyl-1-(8-methylisochroman-1-yl)methanamine] | < 3 | + (LOQ≤ + <5%) | ++ (5%≤ ++ <25%) | ++ (5%≤ ++ <25%) | + (LOQ≤ + <5%) | ++ (5%≤ ++ <25%) | + (LOQ≤ + <5%) | ++++ (50%≤ ++++) | ++ (5%≤ ++ <25%) | ++++ (50%≤ ++++) | – | – |
| CNC[C@H]1OCCc2ccc(Cl)cc21 [Example 64, (S)-1-(7-chloroisochroman-1-yl)-N-methylmethanamine] | – | + (LOQ≤ + <5%) | ++ (5%≤ ++ <25%) | +++ (25%≤ +++ <50%) | ++ (5%≤ ++ <25%) | + (LOQ≤ + <5%) | + (LOQ≤ + <5%) | ++ (5%≤ ++ <25%) | ++ (5%≤ ++ <25%) | ++++ (50%≤ ++++) | – | A-B |
| CNC[C@@H]1OC[C@H](F)c2ccccc21 [Example 22, 1-((1R,4R)-4-fluoroisochroman-1-yl)-N-methylmethanamine] | < 3 | + (LOQ≤ + <5%) | ++ (5%≤ ++ <25%) | ++ (5%≤ ++ <25%) | ++ (5%≤ ++ <25%) | +++ (25%≤ +++ <50%) | ++ (5%≤ ++ <25%) | +++ (25%≤ +++ <50%) | ++ (5%≤ ++ <25%) | + (LOQ≤ + <5%) | – | – |
| CNC[C@@H]1OCC(F)(F)c2ccccc21 [Example 28, (R)-1-(4,4-difluoroisochroman-1-yl)-N-methylmethanamine] | < 3 | + (LOQ≤ + <5%) | ++ (5%≤ ++ <25%) | ++ (5%≤ ++ <25%) | ++ (5%≤ ++ <25%) | ++ (5%≤ ++ <25%) | + (LOQ≤ + <5%) | +++ (25%≤ +++ <50%) | ++ (5%≤ ++ <25%) | +++ (25%≤ +++ <50%) | – | – |
| NC[C@H]1OCCc2c(Cl)cccc21 [Example 66, (S)-(5-chloroisochroman-1-yl)methanamine] | – | + (LOQ≤ + <5%) | + (LOQ≤ + <5%) | ++ (5%≤ ++ <25%) | + (LOQ≤ + <5%) | ++++ (50%≤ ++++) | + (LOQ≤ + <5%) | + (LOQ≤ + <5%) | + (LOQ≤ + <5%) | + (LOQ≤ + <5%) | – | A-B |
